This passage reports IC50 and Ki results from patent US7504420B2, “Compounds which inhibit beta-secretase activity and methods of use” (CoMentis, Inc., priority 2005, dated 2009).

Where only a bound is given, the exact number is not on record here.

In assay [1] the test system is Aβ production in Chinese hamster ovary cells that over-express human APP695 with the London and Swedish mutations. Briefly: Cellular Aβ IC50 determination (Aβ40 sandwich ELISA). Particulars: Cricetulus griseus, CHO, 24 h, read-out: Cell, Aβ40, CHO cells over-expressing human APP695 (London and Swedish mutations), 24 h.
The next assay concerns the target memapsin 2 (Homo sapiens, UniProt P56817). The assay is described as follows: Inhibition of memapsin 2 catalytic activity (Ki). It is filed as biochemical. Particulars: memapsin 2, pH 4, 37° C.; read-out: M2K. The method in brief:
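Run at 37 °C and pH 4: compound and enzyme pre-incubated 20 min before FS-2 fluorogenic substrate started hydrolysis,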

The next assay concerns the target cathepsin D (Homo sapiens, UniProt P07339). The assay is described as follows: Inhibition of cathepsin D catalytic activity (Ki). It is filed as biochemical. Particulars: pH 4.0, 37° C., read-out: CDK. As to the method:
A substrate peptide NH3-ELDLAVEFWHDR-CO2 (SEQ ID NO.:1) (used for inhibition assay of memapsin 2, memapsin 1, and cathepsin D) was dissolved at 2 mg/ml in DMSO and diluted 1:100 in 0.1 M sodium acetate, pH 4.0 just prior to assay. Inhibitor dissolved in DMSO was diluted into 0.1 M sodium acetate, pH 4.0 (1:100 dilution). A […] aliquot of the inhibitor solution in pH 4 buffer was combined with […] of 0.1 M sodium acetate containing 100-200 nM of memapsin 1, memapsin 2, or cathepsin D. Following a pre-incubation at 37° C., the proteolytic assay was initated by addition of […] of the substrate diluted into pH 4 buffer, and incubation continued at 37° C. Aliquots were removed at time intervals, and combined with an equal volume of MALDI-TOF matrix (α-hydroxycinnamic acid in acetone, 20 mg/ml) and immediately spotted in duplicate onto a stainless-steel MALDI sample plate. MALDI-TOF mass spectrometry was performed on a PE Biosystems Voyager DE instrument at the Molecular Biology Resource Center on campus. The instrument was operated at 25,000 accelerating volts in positive mode with a 150 ns delay. Ions with a mass-to-charge ratio (m/z) were detected in the range of 650-2000 atomic mass units. Data were analyzed by the Voyager Data Explorer module to obtain ion intensity data for mass species of substrates and corresponding products in a given mixture. Relative product formation was calculated as the ratio of signal intensity of the product to the sum of signal intensities of both product and the corresponding substrate. Relative product formed per unit time was obtained from non-linear regression analysis of the data representing the initial 15% formation of product using the model: 1−e^−kT, where k was the relative hydrolytic rate constant and T was time in seconds. Alternatively, relative hydrolytic rates were determined using a fluorogenic cleavage assay (Ermolieff, J. et al., Biochemistry, 39: 12450-12456 (2000)). Initial rates from either method were expressed relative to uninhibited controls and the inhibition constant Ki was determined by a non-linear fit to a tight-binding model of competitive inhibition (Bieth, J., Bayer-Symposium V: Proteinase Inhibitors, pp 463-469, Spinger-Varlag, Berlin (1994)). Results are shown in Table 1 above (M2K, CDK, and M1K columns represent, respectively, the K1 values obtained for memapsin 2, cathepsin D and memapsin 1).

cathepsin D, sequence (P07339 65-412, species assumed): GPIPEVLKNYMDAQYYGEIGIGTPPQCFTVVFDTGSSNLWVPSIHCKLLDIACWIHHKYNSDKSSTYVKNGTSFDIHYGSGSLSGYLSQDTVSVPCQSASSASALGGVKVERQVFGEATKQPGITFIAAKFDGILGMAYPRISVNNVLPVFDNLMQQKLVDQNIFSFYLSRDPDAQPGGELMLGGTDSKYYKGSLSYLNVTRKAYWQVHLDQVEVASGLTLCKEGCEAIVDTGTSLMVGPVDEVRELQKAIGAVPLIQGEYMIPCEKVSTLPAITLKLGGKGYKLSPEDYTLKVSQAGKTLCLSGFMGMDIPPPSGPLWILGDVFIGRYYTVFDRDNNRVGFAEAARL
memapsin 2, sequence (P56817 46-501): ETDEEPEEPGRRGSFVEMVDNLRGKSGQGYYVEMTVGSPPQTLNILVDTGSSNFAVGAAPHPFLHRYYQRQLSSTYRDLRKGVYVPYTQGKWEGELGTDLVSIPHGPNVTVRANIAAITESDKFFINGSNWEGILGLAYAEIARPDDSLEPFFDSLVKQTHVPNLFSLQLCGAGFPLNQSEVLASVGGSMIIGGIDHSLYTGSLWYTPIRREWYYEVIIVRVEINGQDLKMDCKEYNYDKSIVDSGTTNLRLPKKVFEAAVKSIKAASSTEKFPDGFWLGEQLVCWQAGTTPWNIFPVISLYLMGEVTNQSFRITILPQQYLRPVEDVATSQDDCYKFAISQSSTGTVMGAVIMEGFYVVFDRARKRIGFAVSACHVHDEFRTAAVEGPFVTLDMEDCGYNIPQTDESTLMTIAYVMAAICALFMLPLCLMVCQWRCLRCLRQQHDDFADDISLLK

For `Cc1csc(CN(C)C(=O)c2cccc(C(=O)NC(Cc3ccccc3)C(O)CNCCN3CCCC3)c2)n1` (stereo not drawn) [N1-(3-hydroxy-1-phenyl-4-(2-(pyrrolidin-1-yl)ethylamino)butan-2-yl)-N3-methyl-N3-((4-methylthiazol-2-yl)methyl)isophthalamide], the IC50 in assay [1] is above 5000 nM. Also, the Ki at memapsin 2 and at cathepsin D was above 501 nM each time.

On to `CC(NC(=O)c1cc(C(=O)NC(Cc2ccccc2)C(O)CNCc2cccc(C(F)(F)F)c2)cc(N(C)S(C)(=O)=O)c1)c1ccccc1` (stereo not drawn) [N1-(3-hydroxy-1-phenyl-4-(3-(trifluoromethyl)benzylamino)butan-2-yl)-5-(N-methylmethylsulfonamido)-N3-(1-phenylethyl)isophthalamide], for which the IC50 in assay [1] was below 1000 nM. The Ki at memapsin 2 and at cathepsin D was below 300 nM in each case.

As for `CC(NC(=O)c1cc(C(=O)NC(Cc2ccccc2)C(O)CNCC2CCCNC2)cc(N(C)S(C)(=O)=O)c1)c1ccccc1` (stereo not drawn) [N1-(3-hydroxy-1-phenyl-4-(piperidin-3-ylmethylamino)butan-2-yl)-5-(N-methylmethylsulfonamido)-N3-(1-phenylethyl)isophthalamide], the IC50 in assay [1] was above 5000 nM. The Ki on memapsin 2 and at cathepsin D was above 501 nM throughout.

As for `CC(NC(=O)c1cc(C(=O)NC(Cc2ccccc2)C(O)CNCC2CCNCC2)cc(N(C)S(C)(=O)=O)c1)c1ccccc1` (stereo not drawn) [N1-(3-hydroxy-1-phenyl-4-(piperidin-4-ylmethylamino)butan-2-yl)-5-(N-methylmethylsulfonamido)-N3-(1-phenylethyl)isophthalamide], the IC50 in assay [1] was above 5000 nM. The Ki on memapsin 2 and on cathepsin D was above 501 nM each time.

For `CC(NC(=O)c1cc(C(=O)NC(Cc2ccccc2)C(O)CNCc2cnccn2)cc(N(C)S(C)(=O)=O)c1)c1ccccc1` (stereo not drawn) [N1-(3-hydroxy-1-phenyl-4-(pyrazin-2-ylmethylamino)butan-2-yl)-5-(N-methylmethylsulfonamido)-N3-(1-phenylethyl)isophthalamide], the IC50 in assay [1] was below 1000 nM. The results for the Ki on memapsin 2 and on cathepsin D were below 300 nM and above 501 nM, respectively.

Turning to `CC(NC(=O)c1cc(C(=O)NC(Cc2ccccc2)C(O)CNCc2cnc3ccccc3c2)cc(N(C)S(C)(=O)=O)c1)c1ccccc1` (stereo not drawn) [N1-(3-hydroxy-1-phenyl-4-(quinolin-3-ylmethylamino)butan-2-yl)-5-(N-methylmethylsulfonamido)-N3-(1-phenylethyl)isophthalamide], the IC50 in assay [1] is below 1000 nM. Also, the Ki on memapsin 2 and on cathepsin D was below 300 nM each time.

With `COc1cccc(C(C)NCC(O)C(Cc2ccccc2)NC(=O)c2cc(C(=O)NC(C)c3cccc(OC)c3)cc(N(C)S(C)(=O)=O)c2)c1` (stereo not drawn) [N1-(3-hydroxy-4-(1-(3-methoxyphenyl)ethylamino)-1-phenylbutan-2-yl)-N3-(1-(3-methoxyphenyl)ethyl)-5-(N-methylmethylsulfonamido)isophthalamide], the IC50 in assay [1] was below 1000 nM. Also, the Ki at memapsin 2 and on cathepsin D was below 300 nM each time.

Take `COc1ccccc1CCNCC(O)C(Cc1ccccc1)NC(=O)c1cc(C(=O)NC(C)c2ccccc2)cc(N(C)S(C)(=O)=O)c1` (stereo not drawn) [N1-(3-hydroxy-4-(2-methoxyphenethylamino)-1-phenylbutan-2-yl)-5-(N-methylmethylsulfonamido)-N3-(1-phenylethyl)isophthalamide]: the IC50 in assay [1] lay in the range of 1000 to 5000 nM. Further, the Ki on memapsin 2 and at cathepsin D was below 300 nM in each case.

Take `CC(NC(=O)c1cc(C(=O)NC(Cc2ccccc2)C(O)CNCCN2CCOCC2)cc(N(C)S(C)(=O)=O)c1)c1ccccc1` (stereo not drawn) [N1-(3-hydroxy-4-(2-morpholinoethylamino)-1-phenylbutan-2-yl)-5-(N-methylmethylsulfonamido)-N3-(1-phenylethyl)isophthalamide]: in assay [1], the IC50 was 1000 to 5000 nM. Moreover, the Ki at memapsin 2 was 301 to 500 nM; on cathepsin D it was above 501 nM.

Take `CC(C)Cc1cccc(CNCC(O)C(Cc2ccccc2)NC(=O)c2cc(C(=O)NC(C)c3ccccc3)cc(N(C)S(C)(=O)=O)c2)c1` (stereo not drawn) [N1-(3-hydroxy-4-(3-isobutylbenzylamino)-1-phenylbutan-2-yl)-5-(N-methylmethylsulfonamido)-N3-(1-phenylethyl)isophthalamide]: the IC50 in assay [1] was below 1000 nM. For the same molecule, the Ki on memapsin 2 and at cathepsin D was below 300 nM in each case.

Regarding `Cc1csc(CN(C)C(=O)c2cccc(C(=O)NC(Cc3ccccc3)C(O)CNCc3cccc(OC(C)C)c3)c2)n1` (stereo not drawn) [N1-(3-hydroxy-4-(3-isopropoxybenzylamino)-1-phenylbutan-2-yl)-N3-methyl-N3-((4-methylthiazol-2-yl)methyl)isophthalamide], the IC50 in assay [1] was below 1000 nM. Besides, the Ki at memapsin 2 and at cathepsin D was below 300 nM throughout.

`CC(C)c1cccc(CNCC(O)C(Cc2ccccc2)NC(=O)c2cc(C(=O)NC(C)c3ccccc3)cc(N(C)S(C)(=O)=O)c2)c1` (stereo not drawn) [N1-(3-hydroxy-4-(3-isopropylbenzylamino)-1-phenylbutan-2-yl)-5-(N-methylmethylsulfonamido)-N3-(1-phenylethyl)isophthalamide]: the IC50 in assay [1] was below 1000 nM. For the same molecule, the Ki at memapsin 2 and on cathepsin D was below 300 nM each time.

Turning to `Cc1csc(CN(C)C(=O)c2cccc(C(=O)NC(Cc3ccccc3)C(O)CNCc3cccc(C(C)C)c3)c2)n1` (stereo not drawn) [N1-(3-hydroxy-4-(3-isopropylbenzylamino)-1-phenylbutan-2-yl)-N3-methyl-N3-((4-methylthiazol-2-yl)methyl)isophthalamide], in assay [1], the IC50 was below 1000 nM. The Ki on memapsin 2 and on cathepsin D was below 300 nM each time.

`COc1cccc(CNCC(O)C(Cc2ccccc2)NC(=O)c2cc(C(=O)NC(C)c3ccccc3)c(C)cc2C)c1` (stereo not drawn) [N1-(3-hydroxy-4-(3-methoxybenzylamino)-1-phenylbutan-2-yl)-4,6-dimethyl-N3-(1-phenylethyl)isophthalamide]: the IC50 in assay [1] is below 1000 nM. Moreover, the values for the Ki on memapsin 2 and on cathepsin D were 301 to 500 nM and below 300 nM, respectively.

As for `COc1cccc(CNCC(O)C(Cc2ccccc2)NC(=O)c2cc(C(=O)NC(C)c3nc(CO)co3)cc(N(C)S(C)(=O)=O)c2)c1` (stereo not drawn) [N1-(3-hydroxy-4-(3-methoxybenzylamino)-1-phenylbutan-2-yl)-N3-(1-(4-(hydroxymethyl)oxazol-2-yl)ethyl)-5-(N-methylmethylsulfonamido)isophthalamide], the IC50 in assay [1] is below 1000 nM. In addition, the Ki at memapsin 2 is below 300 nM; on cathepsin D, above 501 nM.

Consider `COc1cccc(CNCC(O)C(Cc2ccccc2)NC(=O)c2cc(C(=O)NCc3cncc(O)c3)cc(N(C)S(C)(=O)=O)c2)c1` (stereo not drawn) [N1-(3-hydroxy-4-(3-methoxybenzylamino)-1-phenylbutan-2-yl)-N3-((5-hydroxypyridin-3-yl)methyl)-5-(N-methylmethylsulfonamido)isophthalamide], for which the IC50 in assay [1] is below 1000 nM. In addition, the Ki at memapsin 2 and at cathepsin D was above 501 nM throughout.

On to `COc1cccc(CNCC(O)C(Cc2ccccc2)NC(=O)c2cc(C(=O)N(C)Cc3nc(C)cs3)cc(N(C)S(C)(=O)=O)c2)c1` (stereo not drawn) [N1-(3-hydroxy-4-(3-methoxybenzylamino)-1-phenylbutan-2-yl)-N3-methyl-5-(N-methylmethylsulfonamido)-N3-((4-methylthiazol-2-yl)methyl)isophthalamide], for which, in assay [1], the IC50 was below 1000 nM. In addition, the Ki at memapsin 2 and on cathepsin D was below 300 nM in each case.

Consider `COc1cccc(CNCC(O)C(Cc2ccccc2)NC(=O)c2cccc(C(=O)N(C)C(C)c3nc(C)cs3)c2)c1` (stereo not drawn) [N1-(3-hydroxy-4-(3-methoxybenzylamino)-1-phenylbutan-2-yl)-N3-methyl-N3-(1-(4-methylthiazol-2-yl)ethyl)isophthalamide], for which the IC50 in assay [1] was below 1000 nM. The Ki at memapsin 2 and at cathepsin D was below 300 nM each time.

With `COc1cccc(CCNCC(O)C(Cc2ccccc2)NC(=O)c2cccc(C(=O)N(C)Cc3nc(C)cs3)c2)c1` (stereo not drawn) [N1-(3-hydroxy-4-(3-methoxyphenethylamino)-1-phenylbutan-2-yl)-N3-methyl-N3-((4-methylthiazol-2-yl)methyl)isophthalamide], in assay [1], the IC50 was above 5000 nM. The Ki was above 501 nM on memapsin 2 and 301 to 500 nM at cathepsin D.
